Laboratory results taken from article PMC11347161, “Sequence diversity of apidaecin-like peptides arresting the terminating ribosome” (Nucleic Acids Research, 2024).

Test system: E. coli BL21 cells
Assay: Negative (depletion) selection of clones expressing Api variants, NGS
Type: cell-based
Conditions: log2-fold change of clone abundance, three replicates, edgeR
Method: Prior to the library screening, pilot experiments were conducted to optimize arabinose concentration. To achieve this, E. coli BL21 cells transformed with the pApi plasmid carrying the wt Api gene were plated on LB/agar plates supplemented with Amp and increasing concentrations of arabinose in the 0.05–0.2% range. […] Subsequent library depletion experiments were carried out on plates containing 0.05% arabinose.
For the negative selection targeted at depleting the clones expressing active Api-like peptides, the 2 ml library stock containing a total of ∼2 × 10^9 colony forming units (cfu) was thawed, diluted 3-fold in LB medium and allowed to recover for 30 min at 37°C. Subsequently, the cultures with the recovered cells were thoroughly mixed, and equal volumes (300 μl) were plated on ten LB/Amp plates supplemented with 2% glucose (for the total library) or ten LB/Amp plates supplemented with 0.05% arabinose (for the library depleted of clones expressing active Api variants). After incubation at 37°C for 16 h, clones were washed off the plates and cell suspensions were used for preparation of the total plasmid, resulting in the pApi(Glu) and pApi(Ara) plasmid preps. The depletion experiments were carried out in three independent replicates.
For deep sequencing of the genes encoding Api-like peptides, the peptide-coding genes were PCR-amplified from the total pApi(Glu) and pApi(Ara) plasmids. Two 50 μl PCR reactions were carried out for each sample using Q5 DNA polymerase (New England Biolabs). The reactions were run in the manufacturer provided buffer, each reaction containing 20 ng of plasmid DNA and 10 pmol of primers Api_Lib_F_i5X and Api_Lib_R_i7X (Supplementary Table S2) which added specific bar codes to the individual samples. PCR amplification was carried out under the following conditions: 98°C, 30 s; 10 cycles of [98°C/10 s, 56°C/20 s, 72°C/10 s]; 72°C 120 s. The PCR products were size-fractionated and extracted from the denaturing 8% polyacrylamide gel. Bar-coded DNA libraries (Supplementary Figure S1B) were combined and sequenced on Illumina MiSeq after being spiked in with PhiX Control v3 library (Illumina) to compensate for sequence diversity of the sample.
Sequencing has generated >350 million total reads for the three unselected samples and > 300 million total reads for the depleted library samples. The raw reads were trimmed to the size of the peptide gene and those containing internal ambiguous bases or being less than 60 bases in length were discarded. The nucleotide sequences were translated into amino acid sequences and the peptides lacking N-terminal methionine or deviating from the size of the expected sequence were eliminated. Peptides with <100 reads in each of the pApi(Glu) samples were also discarded. Subsequently, the filtered data underwent differential abundance analysis using the standard workflow of edgeR within the R/Bioconductor package ([27]). This analysis generated logFC (the log2-fold change of unique peptides between Glu and Ara samples), q-values (adjusted P-values with the FDR correction), and log10 CPM values (log counts per million), detailed in Dataset 1. A volcano plot was generated in R to visualize the differential abundance of unique peptides based on these parameters.

[1] = sheet Negative Selection logFC>1, q<0.005 (putatively functional variants), arabinose vs glucose, endogenously expressed peptide
[2] = sheet diff-NS-All, induced (0.05% arabinose) vs non-induced (2% glucose), endogenously expressed peptide with N-terminal Met

MGNNRKVYIGEPRPPYPRL* [endogenously expressed Api library variant K6,G10,E11,Y16 (numbering includes Met)]
Ara/Glu: logFC [1]: -4.01 | Ara/Glu: logFC [2]: -4.01

MGNNRNVYIAQPRPYHPRI* [endogenously expressed Api library variant N6,A10,Y15,I19 (numbering includes Met)]
Ara/Glu: logFC [2]: -4.88

MLNNIGVQVPKPRPPHPRL* [endogenously expressed Api library variant L2,I5,G6,Q8,V9,K11 (numbering includes Met)]
Ara/Glu: logFC [2]: -3.95

MTNNRKVYEPEPRPPHPRL* [endogenously expressed Api library variant T2,K6,E9,E11 (numbering includes Met)]
Ara/Glu: logFC [1]: -4.06 | Ara/Glu: logFC [2]: -4.06
